The target in one series is T1, HIV-1 capsid protein (Human immunodeficiency virus type 1 group M subtype B, UniProt P12493).
T1 construct: made in house; host or cells: E. coli (pET30 vector)
Nature of the series: In vitro polymerization of HIV-1 capsid protein (His-CA/GST-CA, Eu cryptate/XL665 energy transfer). It is filed as biochemical, HIV-1 NL4-3. The note with it: for Imax: 37° C., 2 h incubation. An excerpt: • 1. MAb Anti GST-Eu cryptate (Cisbio) • 2. MAb Anti 6HIS-XL665 (Cisbio) • 3. His tag HIV-1 capsid protein (hereinafter referred to as His-CA) • 4. GST tag HIV-1 capsid protein (hereinafter referred to as GST-CA) • 5. 384-well unbound surface microplate, white (Corning) • 6. Microplate reader (BMG)
The HIV-1 capsid proteins aggregate spontaneously in high-salt solutions. Capsid protein sequences derived from HIV-1 NL4-3 strains (GeneBank AF324493.2) were separately tagged with 6His tag and GST tag sequences at the C-terminus, cloned into pET30 vectors, and expressed and separately tagged for expression in E. coli system and purified. His-CA and GST-CA were mixed at high-salt concentrations, and the level of polymerization of capsid proteins was detected using GST antibody labeled with Eu3+-Cryptate (energy donor) and His antibody labeled with XL665 (energy acceptor). Since the excitation spectrum of Eu3+-Cryptate overlapped with the excitation spectrum of XL665, when the capsid proteins with these two tags formed a poly complex, the energy donor and the energy acceptor could be drawn to a sufficiently close distance, the energy donor released part of the captured energy under the excitation of an external light source (such as a xenon lamp or a laser), with the emission wavelength being 620 nM, part of the resonance was transferred to the energy acceptor to excite the energy acceptor, with the emission wavelength being 665 nM, and an optical signal was generated, the signal intensity of which was in direct proportion to the degree of polymerization of the tag proteins.
His-CA was diluted to 2 μM in a clean tube with protein diluent (50 mM Tris-HCl, pH 8.0, 50 mM NaCl, 0.4 mM MgCl2, 0.05% Triton X-100, 2% glycerol) while MAb Anti 6HIS-XL665 at a final concentration of 260 nM was added; GST-CA was diluted to 20 nM with protein diluent in another clean tube while MAb Anti GST-Eu cryptate at a final concentration of 3.33 nM was added and incubated on ice for half an hour. Compounds were first formulated into a concentration of 20 mM with DMSO, then diluted to a first concentration of 2 mM with DMSO and serially 5-fold diluted to the 8th concentration. Control wells were set and added with DMSO, and serially-diluted compounds were then 20-fold diluted with protein diluent to 10-fold working concentrations. Preparation of capsid protein polymerization liquid at 2-fold concentration: 50 mM Tris-HCl, pH 8.0, 1 M NaCl, 800 mM KF; to a pre-cooled white round-bottomed 384-well plate were added 4 uL of His-CA-His antibody mixture, 4 uL of GST-CA-GST antibody mixture, 2 uL of the compounds at 10-fold concentration and 10 uL of capsid protein polymerization reaction liquid at 2-fold concentration, the plate was sealed with a light-shielding sealing plate membrane after uniformly mixing, and the reaction plate was placed in a 37° C. incubator for incubation for 2 h. After incubation, the samples were excited with an excitation light at 337 nM, and signal values at 620 nM and 665 nM were collected for detection, wherein Ratio values=(665 nM/620 nM signal)×10000 was calculated according to the signal values. IC50 values for compounds were calculated using Graphpad Prism software based on each concentration of the compounds and the corresponding Ratio values.

Series [1] is described as follows: Thermodynamic stability test of atropisomerism (LC-MS). In kind it is physicochemical. As for the experimental part: Agilent 1200 DAD model LC-MS; column: waters sunfire C18, 4.6×75 mm, 3.5 μm; mobile phase: water (0.1% trifluoroacetic acid):acetonitrile (0.1% trifluoroacetic acid).
The compounds of Examples 1-1a, 1-1b were atropisomers of each other and had different retention times in the LC-MS spectra, and the tautomerism of the atropisomers could be detected by LC-MS.
Compound 1-1a (1.5 mg) was dissolved in acetonitrile (1.0 mL), and the reaction solution was heated at 40° C. for 1.0 h, and the change in purity of compound 1-1a was detected by LC-MS. Compound 1-1a (1.5 mg) was dissolved in dimethyl sulfoxide (1.0 mL), and the reaction solution was heated at 120° C. for 3.0 h, and the change in purity of compound 1-1a was detected by LC-MS.
The same procedure was used to test the change in purity of compound 1-1b at 40° C. and 120° C.
The compounds of Examples 5-1, 5-2 were atropisomers of each other and had different retention times in the LC-MS spectra, and the tautomerism of the atropisomers could be detected by LC-MS.
Compound 5-1 (1.0 mg) was dissolved in DMSO (1.0 mL), and the reaction solution was heated at 37° C. and 120° C. for 3.0 h, respectively, and the change in purity of compound 5-1 was detected by LC-MS.

SMILES strings stand for the structures.

`CC(C)(C#Cc1nc([C@H](Cc2cc(F)cc(F)c2)NC(=O)Cn2nc(C(F)(F)F)c3c2C(F)(F)[C@@H]2C[C@H]32)c(-c2ccc(Cl)c3c(NS(=O)(=O)C4CC4)nn(CC(F)(F)F)c23)c2c1CCC2)S(=O)(=O)C1CC1` (atropisomer, axis not shown; (aR)) [Example 4, N—((S)-1-((R)-4-(4-chloro-3-(cyclopropylsulfonamide)-1-(2,2,2-trifluoroethyl)-1H-indazol-7-yl)-1-(3-(cyclopropylsulfonyl)-3-methyl-but-1-yn-1-yl)-6,7-dihydro-5H-cyclopenta [c]pyridin-3-yl)-2-(3,5-difluorophenyl)ethyl)-2-((3bS,4aR)-5,5-difluoro-3-(trifluoromethyl)-3b,4,4a,5-tetrahydro-1H-cyclopropa[3,4]cyclopenta[1,2-c]pyrazol-1-1)acetamide]: at HIV-1 capsid protein, the IC50 was found to be 68 nM and the Imax was determined as 91%.

On HIV-1 capsid protein, `CC(C)(C#Cc1nc([C@H](Cc2cc(F)cc(F)c2)NC(=O)Cn2nc(C(F)(F)F)c3c2C(F)(F)[C@@H]2C[C@H]32)c(-c2ccc(Cl)c3c(NS(C)(=O)=O)nn(CC(F)(F)F)c23)c2c1CCCC2)S(C)(=O)=O` (single isomer, unassigned) [Example 5-1] returned an IC50 of 37 nM and an Imax of 108%. Moreover, in series [1] (heated at 37° C. for 3.0 h in DMSO), the “atropisomer stability (change in purity by LC-MS)” value is on record as “stable single-configuration compound”. Besides, the “atropisomer stability (change in purity by LC-MS)” value in series [1] (heated at 120° C. for 3.0 h in dimethyl sulfoxide) is “stable single-configuration compound”.

At HIV-1 capsid protein, `CC(C)(C#Cc1nc([C@H](Cc2cc(F)cc(F)c2)NC(=O)Cn2nc(C(F)(F)F)c3c2C(F)(F)[C@@H]2C[C@H]32)c(-c2ccc(Cl)c3c(NS(C)(=O)=O)nn(CC(F)(F)F)c23)c2c1CCC2)S(=O)(=O)C1CC1` (atropisomer, axis not shown; (aR)) [Example 3, N—((S)-1-((R)-4-(4-chloro-3-(methanesulfonamido)-1-(2,2,2-trifluoroethyl)-1H-indazol-7-yl)-1-(3-(cyclopropylsulfonyl)-3-methyl-but-1-yn-1-yl)-6,7-dihydro-5H-cyclopenta[c]pyridin-3-yl)-2-(3,5-difluorophenyl)ethyl)-2-((3bS,4aR)-5,5-difluoro-3-(trifluoromethyl)-3b,4,4a,5-tetrahydro-1H-cyclopropa[3,4]cyclopenta[1,2-c]pyrazol-1-yl)acetamide] showed an IC50 of 24 nM and an Imax of 98%.

For `CC(C)(C#Cc1nc([C@H](Cc2cc(F)cc(F)c2)NC(=O)Cn2nc(C(F)(F)F)c3c2C(F)(F)[C@@H]2C[C@H]32)c(-c2ccc(Cl)c3c(NS(C)(=O)=O)nn(CC(F)(F)F)c23)c2ccccc12)S(C)(=O)=O` (atropisomer, axis not shown; (aR)) [Example 6, N—((S)-1-((R)-4-(4-chloro-3-(methanesulfonamido)-1-(2,2,2-trifluoroethyl)-1H-indazol-7-yl)-1-(3-methyl-3-(methanesulfonyl)but-1-yn-1-yl)isoquinolin-3-yl)-2-(3,5-difluorophenyl)ethyl)-2-((3bS,4aR)-5,5-difluoro-3-(trifluoromethyl)-3b,4,4a,5-tetrahydro-1H-cyclopropa[3,4]cyclopenta[1,2-c]pyrazol-1-yl)acetamide], at HIV-1 capsid protein, the midpoint of inhibition, the IC50, lay at 107 nM and the Imax turned out to be 75%.

At HIV-1 capsid protein, `CC(C)(C#Cc1nc([C@H](Cc2cc(F)cc(F)c2)NC(=O)Cn2nc(C(F)(F)F)c3c2C(F)(F)[C@@H]2C[C@H]32)c(-c2ccc(Cl)c3c(NS(=O)(=O)C4CC4)nn(CC(F)(F)F)c23)c2c1CCC2)S(C)(=O)=O` (atropisomer, axis not shown; (aR)) [Example 2, N—((S)-1-((R)-4-(4-chloro-3-(cyclopropylsulfonamide)-1-(2,2,2-trifluoroethyl)-1H-indazol-7-yl)-1-(3-methyl-3-(methylsulfonyl)but-1-yn-1-yl)-6,7-dihydro-5H-cyclopenta[c]pyridin-3-yl)-2-(3,5-difluorophenyl)ethyl)-2-((3bS,4aR)-5,5-difluoro-3-(trifluoromethyl)-3 b,4,4a,5-tetrahydro-1H-cyclopropa[3,4]cyclopenta[1,2-c]pyrazol-1-yl)acetamide] returned an IC50 of 19 nM and an Imax of 100%.

The values above are taken from patent US12428396B2, “Fused pyridine ring derivative, preparation method therefor, and pharmaceutical use thereof” (priority 2019, dated 2025).
